Results from ChEMBL document CHEMBL6078616, “Seven-membered N-heterocycles as approved drugs and promising leads in medicinal chemistry as well as the metal-free domino access to their scaffolds” (Eur J Med Chem, 2024).

Columns and labels:
HeLa = experiment: cells; details: Homo sapiens
Description: Antiproliferative activity against human HeLa cells assessed as reduction in cell viability

[1] = biological target: T1, Protein deacetylase HDAC6 (Homo sapiens, UniProt Q9UBN7); experiment: Inhibition of HDAC6 (unknown origin)
T1 sequence (Q9UBN7 whole entry): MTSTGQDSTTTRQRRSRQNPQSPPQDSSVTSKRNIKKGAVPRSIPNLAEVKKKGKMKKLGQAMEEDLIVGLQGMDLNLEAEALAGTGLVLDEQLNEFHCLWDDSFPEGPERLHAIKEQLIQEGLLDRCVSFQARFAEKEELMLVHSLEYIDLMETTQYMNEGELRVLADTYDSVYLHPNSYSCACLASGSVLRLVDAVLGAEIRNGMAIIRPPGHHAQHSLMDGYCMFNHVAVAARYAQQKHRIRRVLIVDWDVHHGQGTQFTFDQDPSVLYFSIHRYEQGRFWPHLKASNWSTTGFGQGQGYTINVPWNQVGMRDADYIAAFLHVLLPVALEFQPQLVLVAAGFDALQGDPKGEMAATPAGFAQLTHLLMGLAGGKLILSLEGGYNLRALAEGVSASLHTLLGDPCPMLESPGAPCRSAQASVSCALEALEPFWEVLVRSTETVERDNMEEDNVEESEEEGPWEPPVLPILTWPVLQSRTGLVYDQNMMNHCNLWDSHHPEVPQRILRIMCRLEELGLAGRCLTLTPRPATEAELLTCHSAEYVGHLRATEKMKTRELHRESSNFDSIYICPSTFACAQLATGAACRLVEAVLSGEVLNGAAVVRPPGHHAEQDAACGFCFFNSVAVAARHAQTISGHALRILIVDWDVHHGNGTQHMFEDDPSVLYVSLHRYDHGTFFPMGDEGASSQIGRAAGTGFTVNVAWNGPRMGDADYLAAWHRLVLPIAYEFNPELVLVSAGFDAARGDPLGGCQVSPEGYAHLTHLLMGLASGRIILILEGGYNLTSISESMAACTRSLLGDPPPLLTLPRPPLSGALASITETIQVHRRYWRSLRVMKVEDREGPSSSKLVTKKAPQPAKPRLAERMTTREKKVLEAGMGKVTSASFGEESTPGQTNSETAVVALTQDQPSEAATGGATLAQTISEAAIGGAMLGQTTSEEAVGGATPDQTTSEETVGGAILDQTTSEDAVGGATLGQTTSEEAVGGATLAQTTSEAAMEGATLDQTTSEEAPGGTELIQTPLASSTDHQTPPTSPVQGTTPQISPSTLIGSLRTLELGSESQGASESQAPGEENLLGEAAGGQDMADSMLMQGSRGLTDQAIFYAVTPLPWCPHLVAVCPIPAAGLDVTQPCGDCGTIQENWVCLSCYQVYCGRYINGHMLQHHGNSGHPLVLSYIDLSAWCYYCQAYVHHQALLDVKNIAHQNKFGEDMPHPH

Leishmania infantum = experiment: Antileishmanial activity against Leishmania infantum promastigote assessed as reduction in parasite growth after 72 hrs by MTT assay; format: functional, organism-based
[2] = Cytotoxicity against human THP-1 cells assessed as reduction in cell viability; format: toxicity, cell-based
Trypanosoma cruzi = experiment: Antitrypanosomal activity against Trypanosoma cruzi Y strain trypomastigotes […] in African green monkey Vero cells assessed as inhibition of parasite growth incubated for 24 hrs by Neubauer chamber based analysis; format: functional, organism-based
[3] = Cytotoxicity against African green monkey Vero cells assessed as reduction in cell viability incubated for 72 hrs by MTT assay; format: toxicity, cell-based; details: chlorocebus sabaeus
[4] = biological target: Sigma intracellular receptor 2 (Homo sapiens, UniProt Q5BJF2); experiment: Binding affinity to TMEM97 (unknown origin) assessed as inhibition constant
Sigma intracellular receptor 2, sequence (Q5BJF2 whole entry): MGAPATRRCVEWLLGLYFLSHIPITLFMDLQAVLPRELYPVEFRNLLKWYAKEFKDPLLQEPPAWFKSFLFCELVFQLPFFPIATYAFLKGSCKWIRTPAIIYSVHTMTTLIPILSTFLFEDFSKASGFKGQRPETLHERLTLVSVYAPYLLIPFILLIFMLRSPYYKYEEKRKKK

Histone deacetylase 5 = Histone deacetylase 5 (Homo sapiens, UniProt Q9UQL6); experiment: Inhibition of HDAC5 (unknown origin)
Histone deacetylase 5, sequence (Q9UQL6 whole entry): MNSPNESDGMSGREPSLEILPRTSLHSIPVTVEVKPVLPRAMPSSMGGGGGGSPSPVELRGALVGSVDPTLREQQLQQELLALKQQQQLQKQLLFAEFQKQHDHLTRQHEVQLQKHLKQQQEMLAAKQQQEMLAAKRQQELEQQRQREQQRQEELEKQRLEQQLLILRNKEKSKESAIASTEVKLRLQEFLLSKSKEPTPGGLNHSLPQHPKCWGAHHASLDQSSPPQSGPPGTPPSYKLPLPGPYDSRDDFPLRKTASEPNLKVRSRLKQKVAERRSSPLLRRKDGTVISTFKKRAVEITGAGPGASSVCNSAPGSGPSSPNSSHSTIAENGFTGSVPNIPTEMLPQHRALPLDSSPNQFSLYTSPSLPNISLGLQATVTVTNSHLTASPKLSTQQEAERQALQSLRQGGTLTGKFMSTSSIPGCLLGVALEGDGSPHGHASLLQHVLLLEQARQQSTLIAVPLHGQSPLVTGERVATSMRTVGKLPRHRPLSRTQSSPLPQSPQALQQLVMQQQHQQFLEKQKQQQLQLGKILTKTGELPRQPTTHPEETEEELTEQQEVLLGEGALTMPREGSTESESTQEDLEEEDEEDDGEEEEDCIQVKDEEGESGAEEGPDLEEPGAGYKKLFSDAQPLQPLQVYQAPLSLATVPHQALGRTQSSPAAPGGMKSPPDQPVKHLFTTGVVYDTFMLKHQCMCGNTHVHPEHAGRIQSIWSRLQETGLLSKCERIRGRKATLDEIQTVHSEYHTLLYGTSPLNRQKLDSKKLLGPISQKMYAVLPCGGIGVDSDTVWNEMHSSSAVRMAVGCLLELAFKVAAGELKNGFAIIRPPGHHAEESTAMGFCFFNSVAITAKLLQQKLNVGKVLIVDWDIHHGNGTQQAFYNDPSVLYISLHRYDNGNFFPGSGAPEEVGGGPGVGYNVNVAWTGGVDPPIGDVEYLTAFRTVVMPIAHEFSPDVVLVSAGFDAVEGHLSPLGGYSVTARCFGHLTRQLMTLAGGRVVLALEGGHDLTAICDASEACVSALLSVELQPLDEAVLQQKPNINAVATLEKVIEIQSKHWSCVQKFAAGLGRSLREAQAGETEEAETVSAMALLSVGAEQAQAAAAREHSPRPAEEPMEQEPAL

Histone deacetylase 3 = Histone deacetylase 3 (Homo sapiens, UniProt O15379); experiment: Inhibition of HDAC3 (unknown origin)
Histone deacetylase 3, sequence (O15379 whole entry): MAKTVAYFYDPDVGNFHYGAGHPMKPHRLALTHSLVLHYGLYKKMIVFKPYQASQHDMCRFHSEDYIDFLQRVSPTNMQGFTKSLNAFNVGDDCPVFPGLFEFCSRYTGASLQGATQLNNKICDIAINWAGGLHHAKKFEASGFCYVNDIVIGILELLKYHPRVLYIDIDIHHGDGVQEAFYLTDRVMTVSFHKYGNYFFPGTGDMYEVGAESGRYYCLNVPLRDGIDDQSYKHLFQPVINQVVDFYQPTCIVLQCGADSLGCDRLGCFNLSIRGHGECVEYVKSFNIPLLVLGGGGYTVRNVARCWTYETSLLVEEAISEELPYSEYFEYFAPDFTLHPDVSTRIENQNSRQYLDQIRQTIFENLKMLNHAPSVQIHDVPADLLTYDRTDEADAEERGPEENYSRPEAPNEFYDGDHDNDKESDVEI

[5] = biological target: T2, Polyamine deacetylase HDAC10 (Homo sapiens, UniProt Q969S8); experiment: Inhibition of HDAC10 (unknown origin)
T2 sequence (Q969S8 whole entry): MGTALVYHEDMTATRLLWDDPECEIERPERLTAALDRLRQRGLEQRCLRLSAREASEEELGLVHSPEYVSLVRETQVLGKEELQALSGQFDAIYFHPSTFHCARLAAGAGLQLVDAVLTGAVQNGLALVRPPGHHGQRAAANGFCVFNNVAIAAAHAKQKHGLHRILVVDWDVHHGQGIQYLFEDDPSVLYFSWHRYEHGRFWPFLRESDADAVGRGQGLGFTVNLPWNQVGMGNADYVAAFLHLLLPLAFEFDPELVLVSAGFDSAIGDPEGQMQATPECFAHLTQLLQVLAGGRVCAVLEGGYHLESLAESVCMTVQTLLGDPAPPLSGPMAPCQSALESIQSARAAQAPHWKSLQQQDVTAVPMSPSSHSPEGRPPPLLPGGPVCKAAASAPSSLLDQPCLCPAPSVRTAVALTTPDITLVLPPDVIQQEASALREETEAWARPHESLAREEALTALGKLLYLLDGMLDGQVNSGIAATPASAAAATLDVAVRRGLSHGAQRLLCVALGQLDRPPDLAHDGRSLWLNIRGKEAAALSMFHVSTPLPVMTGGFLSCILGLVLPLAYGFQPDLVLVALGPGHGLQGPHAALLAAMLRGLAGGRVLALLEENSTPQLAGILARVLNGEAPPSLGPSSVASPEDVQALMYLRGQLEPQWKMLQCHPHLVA

Histone deacetylase 9 = Histone deacetylase 9 (Homo sapiens, UniProt Q9UKV0); experiment: Inhibition of HDAC9 (unknown origin)
Histone deacetylase 9, sequence (Q9UKV0 whole entry): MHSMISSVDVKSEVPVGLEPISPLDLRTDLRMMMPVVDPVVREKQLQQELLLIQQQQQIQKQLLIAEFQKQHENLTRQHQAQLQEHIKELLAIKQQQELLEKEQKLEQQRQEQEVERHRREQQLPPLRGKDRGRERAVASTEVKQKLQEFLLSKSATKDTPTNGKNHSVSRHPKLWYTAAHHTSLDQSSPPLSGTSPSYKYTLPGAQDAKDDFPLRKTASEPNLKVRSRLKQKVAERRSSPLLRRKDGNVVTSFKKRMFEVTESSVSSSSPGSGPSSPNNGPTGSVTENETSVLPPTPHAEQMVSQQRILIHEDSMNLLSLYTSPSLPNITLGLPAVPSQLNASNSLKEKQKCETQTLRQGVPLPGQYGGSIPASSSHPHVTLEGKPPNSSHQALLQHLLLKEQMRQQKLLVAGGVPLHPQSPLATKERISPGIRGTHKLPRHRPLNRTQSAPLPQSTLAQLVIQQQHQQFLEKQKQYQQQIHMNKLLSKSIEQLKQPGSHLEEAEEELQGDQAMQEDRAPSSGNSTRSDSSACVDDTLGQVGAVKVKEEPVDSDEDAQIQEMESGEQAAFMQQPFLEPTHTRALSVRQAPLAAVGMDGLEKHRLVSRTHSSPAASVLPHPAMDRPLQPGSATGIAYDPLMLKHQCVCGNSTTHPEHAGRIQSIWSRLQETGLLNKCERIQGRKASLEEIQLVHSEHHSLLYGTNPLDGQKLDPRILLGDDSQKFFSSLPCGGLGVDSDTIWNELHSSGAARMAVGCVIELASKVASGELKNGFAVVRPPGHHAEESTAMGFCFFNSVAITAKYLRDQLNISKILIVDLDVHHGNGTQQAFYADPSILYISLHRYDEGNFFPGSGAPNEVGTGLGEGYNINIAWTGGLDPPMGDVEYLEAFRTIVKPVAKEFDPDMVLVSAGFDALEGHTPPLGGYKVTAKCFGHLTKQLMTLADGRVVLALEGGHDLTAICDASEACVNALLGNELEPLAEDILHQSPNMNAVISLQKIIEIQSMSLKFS

Histone deacetylase 1 = Histone deacetylase 1 (Homo sapiens, UniProt Q13547); experiment: Inhibition of HDAC1 (unknown origin)
Histone deacetylase 1, sequence (Q13547 whole entry): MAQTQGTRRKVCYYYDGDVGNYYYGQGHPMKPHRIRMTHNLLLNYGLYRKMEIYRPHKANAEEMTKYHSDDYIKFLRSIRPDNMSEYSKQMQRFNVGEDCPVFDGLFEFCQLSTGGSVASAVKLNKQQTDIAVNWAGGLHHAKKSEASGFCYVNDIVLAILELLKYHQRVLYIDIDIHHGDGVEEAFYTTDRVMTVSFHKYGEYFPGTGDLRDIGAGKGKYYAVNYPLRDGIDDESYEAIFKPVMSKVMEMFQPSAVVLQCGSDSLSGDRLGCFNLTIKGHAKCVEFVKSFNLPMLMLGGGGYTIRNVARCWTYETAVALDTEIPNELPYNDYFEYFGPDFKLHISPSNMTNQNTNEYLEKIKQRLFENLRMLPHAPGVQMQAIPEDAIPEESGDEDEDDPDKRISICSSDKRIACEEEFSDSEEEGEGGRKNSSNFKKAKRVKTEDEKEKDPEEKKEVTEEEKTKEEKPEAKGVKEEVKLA

Histone deacetylase 8 = biological target: T3, Histone deacetylase 8 (Homo sapiens, UniProt Q9BY41); experiment: Inhibition of HDAC8 (unknown origin)
T3 sequence (Q9BY41 whole entry): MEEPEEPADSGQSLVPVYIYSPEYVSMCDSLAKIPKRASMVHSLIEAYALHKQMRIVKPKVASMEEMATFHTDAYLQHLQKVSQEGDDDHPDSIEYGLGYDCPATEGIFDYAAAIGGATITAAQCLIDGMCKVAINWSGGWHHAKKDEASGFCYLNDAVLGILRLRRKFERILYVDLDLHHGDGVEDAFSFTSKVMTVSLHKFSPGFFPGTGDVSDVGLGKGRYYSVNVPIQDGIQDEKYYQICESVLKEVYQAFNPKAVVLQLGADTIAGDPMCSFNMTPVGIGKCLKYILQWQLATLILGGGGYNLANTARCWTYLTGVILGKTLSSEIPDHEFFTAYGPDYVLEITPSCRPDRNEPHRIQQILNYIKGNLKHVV

Histone deacetylase 11 = biological target: T4, Histone deacetylase 11 (Homo sapiens, UniProt Q96DB2); experiment: Inhibition of HDAC11 (unknown origin)
T4 sequence (Q96DB2 whole entry): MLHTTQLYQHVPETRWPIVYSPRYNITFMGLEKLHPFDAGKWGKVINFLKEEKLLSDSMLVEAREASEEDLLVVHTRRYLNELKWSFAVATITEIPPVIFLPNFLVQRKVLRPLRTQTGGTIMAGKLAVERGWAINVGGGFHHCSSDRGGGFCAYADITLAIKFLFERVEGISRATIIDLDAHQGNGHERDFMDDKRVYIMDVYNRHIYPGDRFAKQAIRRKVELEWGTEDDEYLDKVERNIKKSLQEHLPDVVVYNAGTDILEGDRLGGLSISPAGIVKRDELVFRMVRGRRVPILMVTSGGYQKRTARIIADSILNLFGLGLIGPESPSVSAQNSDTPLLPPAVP

Histone deacetylase 4 = Histone deacetylase 4 (Homo sapiens, UniProt P56524); experiment: Inhibition of HDAC4 (unknown origin)
Histone deacetylase 4, sequence (P56524 whole entry): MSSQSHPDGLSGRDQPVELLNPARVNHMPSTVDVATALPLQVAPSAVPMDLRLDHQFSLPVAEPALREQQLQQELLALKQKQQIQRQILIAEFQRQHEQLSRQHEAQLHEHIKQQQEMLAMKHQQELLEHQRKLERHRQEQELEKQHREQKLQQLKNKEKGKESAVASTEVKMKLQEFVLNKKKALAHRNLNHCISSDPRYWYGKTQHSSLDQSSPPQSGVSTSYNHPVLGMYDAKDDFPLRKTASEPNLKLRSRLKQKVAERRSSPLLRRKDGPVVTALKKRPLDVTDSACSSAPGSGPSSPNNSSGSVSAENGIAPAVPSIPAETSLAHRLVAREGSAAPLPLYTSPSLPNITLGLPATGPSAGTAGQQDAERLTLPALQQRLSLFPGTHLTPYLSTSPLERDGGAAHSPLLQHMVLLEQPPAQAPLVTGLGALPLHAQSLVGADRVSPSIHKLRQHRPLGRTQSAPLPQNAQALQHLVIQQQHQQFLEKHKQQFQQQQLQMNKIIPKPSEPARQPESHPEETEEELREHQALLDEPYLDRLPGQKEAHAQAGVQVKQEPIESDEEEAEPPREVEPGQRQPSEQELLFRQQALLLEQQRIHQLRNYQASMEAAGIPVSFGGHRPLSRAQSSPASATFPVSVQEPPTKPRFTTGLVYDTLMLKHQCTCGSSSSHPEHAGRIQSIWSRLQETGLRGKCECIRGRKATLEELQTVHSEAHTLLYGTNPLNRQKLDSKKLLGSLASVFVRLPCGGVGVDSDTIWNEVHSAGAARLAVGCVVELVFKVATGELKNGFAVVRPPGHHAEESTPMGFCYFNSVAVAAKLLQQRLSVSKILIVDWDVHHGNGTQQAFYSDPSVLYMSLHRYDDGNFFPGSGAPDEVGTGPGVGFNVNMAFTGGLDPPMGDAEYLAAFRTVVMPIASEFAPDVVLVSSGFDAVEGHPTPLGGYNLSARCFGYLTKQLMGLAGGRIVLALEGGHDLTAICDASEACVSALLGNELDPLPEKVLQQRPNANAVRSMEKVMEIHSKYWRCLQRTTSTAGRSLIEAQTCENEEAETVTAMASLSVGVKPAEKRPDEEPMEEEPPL

## O=C1Cc2cnn(-c3cc(Cl)cc(Cl)c3)c2-c2ccccc2N1
HeLa
  IC50: 1.32 µM

## O=C(NO)c1ccc(CN2c3ccccc3S(=O)(=O)C[C@H]3CCCC[C@H]32)cc1
[1]
  IC50: 0.1 µM

## O=C1Cc2cnn(-c3cccc(Br)c3)c2-c2ccccc2N1
HeLa
  IC50: 1.32 µM

## COc1cccc([C@@H]2C[C@H]3Cc4cc(Br)c5ccccc5c4N2O3)c1
Leishmania infantum
  IC50: 40.1 µM
[2]
  CC50: > 1520 µM
Trypanosoma cruzi
  IC50: 11.9 µM
[3]
  CC50 at 72 h: > 1520 µM

## O[C@@H]1Cc2cc(Br)c3ccccc3c2N[C@H](c2cccc(Cl)c2Cl)C1
Leishmania infantum
  IC50: 11.8 µM
[2]
  CC50: 59.8 µM
Trypanosoma cruzi
  IC50: 3.3 µM
[3]
  CC50 at 72 h: 40.1 µM

## Brc1ccc([C@@H]2C[C@H]3Cc4ccc5ccccc5c4N2O3)s1
Leishmania infantum
  IC50: 21.6 µM
[2]
  CC50: > 809 µM
Trypanosoma cruzi
  IC50: 8.3 µM
[3]
  CC50 at 72 h: > 809 µM

## FC(F)(F)c1ccc(-c2ccc3c(c2)C2CC3CCN2C2CCCC2)cc1 (centres undefined)
[4]
  Ki: 0.061 µM

## OCCCN1CCC2CC1c1cc(-c3ccc(C(F)(F)F)cc3)ccc12 (centres undefined)
[4]
  Ki: 0.046 µM

## Cc1ccccc1[C@@H]1C[C@H](O)Cc2ccc3ccccc3c2N1
Leishmania infantum
  IC50: 36.2 µM
[2]
  CC50: 41.6 µM
Trypanosoma cruzi
  IC50: 2.5 µM
[3]
  CC50 at 72 h: 36.1 µM

## Cc1ccc([C@@H]2C[C@H]3Cc4ccc5ccccc5c4N2O3)s1
Leishmania infantum
  IC50: 10.9 µM
[2]
  CC50: > 977 µM
Trypanosoma cruzi
  IC50: 11.3 µM
[3]
  CC50 at 72 h: 498 µM

## O=C1Cc2cnn(-c3cc(Cl)cc(Cl)c3)c2-c2cc(Br)ccc2N1
HeLa
  IC50: 1.32 µM

## O=C(NO)c1ccc(CN2c3ccccc3SC[C@H]3CCCCC[C@H]32)cc1
Histone deacetylase 5
  IC50: > 30 µM
Histone deacetylase 3
  IC50: > 30 µM
[5]
  IC50: > 30 µM
Histone deacetylase 9
  IC50: > 30 µM
[1]
  IC50: 0.03 µM
Histone deacetylase 1
  IC50: > 30 µM
Histone deacetylase 8
  IC50: 6.7 µM
Histone deacetylase 11
  IC50: 1.2 µM
Histone deacetylase 4
  IC50: > 30 µM

## CN1CCN(c2ccc3c(c2)C2CC3CCN2C(=O)OCc2ccc(F)cc2)CC1 (centres undefined)
[4]
  Ki: 0.011 µM

## O[C@@H]1Cc2cc(Br)c3ccccc3c2N[C@H](c2ccccc2Cl)C1
Leishmania infantum
  IC50: 8.9 µM
[2]
  CC50: 11.1 µM
Trypanosoma cruzi
  IC50: 11.1 µM
[3]
  CC50 at 72 h: 16 µM

## CCN1CCN(c2ccc3c(c2)C2CCN(C(=O)OCc4ccccc4)C3C2)CC1 (centres undefined)
[4]
  Ki: 0.116 µM

## O=[N+]([O-])c1ccc([C@@H]2C[C@H]3Cc4ccc5ccccc5c4N2O3)cc1
Leishmania infantum
  IC50: 5 µM
[2]
  CC50: > 903 µM
Trypanosoma cruzi
  IC50: 8.6 µM
[3]
  CC50 at 72 h: > 903 µM

## Cc1ccc([C@@H]2C[C@H]3Cc4ccc5ccccc5c4N2O3)o1
Leishmania infantum
  IC50: 15.4 µM
[2]
  CC50: 22.5 µM
Trypanosoma cruzi
  IC50: 9.6 µM
[3]
  CC50 at 72 h: 94.5 µM

## Cc1ccccc1[C@@H]1C[C@H](O)Cc2cc(Br)c3ccccc3c2N1
Leishmania infantum
  IC50: 7.7 µM
[2]
  CC50: 7.1 µM
Trypanosoma cruzi
  IC50: 7.1 µM
[3]
  CC50 at 72 h: 113 µM

## O=[N+]([O-])c1ccc([C@@H]2C[C@H]3Cc4ccc5ccccc5c4N2O3)o1
Leishmania infantum
  IC50: 13.9 µM
[2]
  CC50: 931 µM
Trypanosoma cruzi
  IC50: 8.6 µM
[3]
  CC50 at 72 h: 85.4 µM

## O[C@@H]1Cc2cc(Br)c3ccccc3c2N[C@H](c2cccc(Cl)c2)C1
Leishmania infantum
  IC50: 48.2 µM
[2]
  CC50: 45.1 µM
Trypanosoma cruzi
  IC50: 6.3 µM
[3]
  CC50 at 72 h: 10 µM

## O[C@@H]1Cc2cc(Br)c3ccccc3c2N[C@H](c2ccccc2)C1
Leishmania infantum
  IC50: 617 µM
[2]
  CC50: 24 µM
Trypanosoma cruzi
  IC50: 12.2 µM
[3]
  CC50 at 72 h: 25.3 µM

## C[C@@H]1[C@H](O)[C@@H](C)/C=C/C=C/C=C/C=C/C=C/C=C/C=C/[C@H](O[C@@H]2O[C@H](C)[C@@H](O)[C@H](N)[C@@H]2O)C[C@@H]2O[C@](O)(C[C@@H](O)C[C@@H](O)[C@H](O)CC[C@@H](O)C[C@@H](O)CC(=O)O[C@H]1C)C[C@H](O)[C@H]2C(=O)O [AMPHOTERICIN B]
Leishmania infantum
  IC50: 0.01 µM

## O=C1Cc2c([nH]c3ccc(Br)cc23)-c2ccccc2N1 [KENPAULLONE]
HeLa
  IC50: > 2 µM

## CC1CS(=O)(=O)CCN1/N=C/c1ccc([N+](=O)[O-])o1 (centres undefined) [NIFURTIMOX]
[3]
  CC50 at 72 h: 67.5 µM

## COC(=O)Nc1nc2cc(C(=O)c3cccs3)ccc2[nH]1 [NOCODAZOLE]
HeLa
  IC50: > 2 µM
